Measurements published in the NIST ThermoML archive (doi:10.1016/j.fluid.2015.12.007).
± gives the expanded uncertainty stated by the source.

Test: xn = mol fraction of the nth substance listed
Conditions: 101 kPa, Liquid; for speed of sound: Sing-around technique in a fixed-path interferometer; for mass density: Vibrating tube method

CC(O)CO (stereo not given) [1,2-propanediol] + CCCC[n+]1ccn(C)c1.O=S(=O)([N-]S(=O)(=O)C(F)(F)F)C(F)(F)F
Conditions | mass density [kg/m3] | speed of sound [m/s]
293.15 K, x2 = 0.0606 | 1117.8 ± 0.17 | 1446.5 ± 1.3
293.15 K, x2 = 0.1118 | 1168.99 ± 0.2 | 1406.4 ± 1.3
293.15 K, x2 = 0.2003 | 1234.54 ± 0.23 | 1358.1 ± 1.3
293.15 K, x2 = 0.3056 | 1289.66 ± 0.25 | 1319.6 ± 1.2
293.15 K, x2 = 0.408 | 1328.41 ± 0.26 | 1294.8 ± 1.2
293.15 K, x2 = 0.4987 | 1355.11 ± 0.26 | 1279.5 ± 1.2
293.15 K, x2 = 0.602 | 1379.69 ± 0.24 | 1265.9 ± 1.2
293.15 K, x2 = 0.7047 | 1399.49 ± 0.23 | 1256.2 ± 1.2
293.15 K, x2 = 0.7945 | 1413.97 ± 0.23 | 1249.2 ± 1.2
293.15 K, x2 = 0.8971 | 1428 ± 0.23 | 1243.5 ± 1.2
298.15 K, x2 = 0.0606 | 1113.84 ± 0.17 | 1435.8 ± 1.3
298.15 K, x2 = 0.1118 | 1164.21 ± 0.2 | 1395.8 ± 1.3
298.15 K, x2 = 0.2003 | 1230.02 ± 0.23 | 1345.7 ± 1.3
298.15 K, x2 = 0.3056 | 1284.95 ± 0.25 | 1307.6 ± 1.2
298.15 K, x2 = 0.408 | 1323.62 ± 0.26 | 1283.1 ± 1.2
298.15 K, x2 = 0.4987 | 1350.28 ± 0.26 | 1268 ± 1.2
298.15 K, x2 = 0.602 | 1374.74 ± 0.24 | 1254.5 ± 1.2
298.15 K, x2 = 0.7047 | 1394.49 ± 0.23 | 1244.9 ± 1.2
298.15 K, x2 = 0.7945 | 1409 ± 0.23 | 1238 ± 1.2
298.15 K, x2 = 0.8971 | 1423.19 ± 0.22 | 1232.2 ± 1.2
303.15 K, x2 = 0.0606 | 1109.82 ± 0.17 | 1422.8 ± 1.3
303.15 K, x2 = 0.1118 | 1161.05 ± 0.19 | 1382.1 ± 1.3
303.15 K, x2 = 0.2003 | 1225.5 ± 0.23 | 1333.5 ± 1.3
303.15 K, x2 = 0.3056 | 1280.27 ± 0.25 | 1295.7 ± 1.2
303.15 K, x2 = 0.408 | 1318.85 ± 0.25 | 1271.4 ± 1.2
303.15 K, x2 = 0.4987 | 1345.27 ± 0.25 | 1256.6 ± 1.2
303.15 K, x2 = 0.602 | 1369.61 ± 0.23 | 1243.2 ± 1.2
303.15 K, x2 = 0.7047 | 1389.48 ± 0.23 | 1233.8 ± 1.2
303.15 K, x2 = 0.7945 | 1404.07 ± 0.22 | 1226.9 ± 1.2
303.15 K, x2 = 0.8971 | 1418.39 ± 0.22 | 1221.1 ± 1.2
308.15 K, x2 = 0.0606 | 1105.77 ± 0.17 | 1408.7 ± 1.3
308.15 K, x2 = 0.1118 | 1156.91 ± 0.19 | 1367.8 ± 1.3
308.15 K, x2 = 0.2003 | 1220.98 ± 0.22 | 1321.3 ± 1.2
308.15 K, x2 = 0.3056 | 1275.59 ± 0.24 | 1283.8 ± 1.2
308.15 K, x2 = 0.408 | 1314.09 ± 0.25 | 1259.9 ± 1.2
308.15 K, x2 = 0.4987 | 1340.46 ± 0.25 | 1245.3 ± 1.2
308.15 K, x2 = 0.602 | 1364.78 ± 0.23 | 1232 ± 1.2
308.15 K, x2 = 0.7047 | 1384.7 ± 0.23 | 1222.7 ± 1.2
308.15 K, x2 = 0.7945 | 1399.37 ± 0.22 | 1215.9 ± 1.2
308.15 K, x2 = 0.8971 | 1413.61 ± 0.22 | 1210.2 ± 1.2
313.15 K, x2 = 0.0606 | 1101.68 ± 0.17 | 1396.5 ± 1.3
313.15 K, x2 = 0.1118 | 1152.58 ± 0.19 | 1356.3 ± 1.3
313.15 K, x2 = 0.2003 | 1216.47 ± 0.22 | 1309.3 ± 1.2
313.15 K, x2 = 0.3056 | 1270.92 ± 0.24 | 1272.2 ± 1.2
313.15 K, x2 = 0.408 | 1309.33 ± 0.25 | 1248.6 ± 1.2
313.15 K, x2 = 0.4987 | 1335.67 ± 0.25 | 1234.1 ± 1.2
313.15 K, x2 = 0.602 | 1359.98 ± 0.23 | 1220.9 ± 1.2
313.15 K, x2 = 0.7047 | 1379.79 ± 0.22 | 1211.8 ± 1.2
313.15 K, x2 = 0.7945 | 1394.5 ± 0.22 | 1205 ± 1.2
313.15 K, x2 = 0.8971 | 1408.84 ± 0.22 | 1199.3 ± 1.2
318.15 K, x2 = 0.0606 | 1097.57 ± 0.16 | 1383.2 ± 1.3
318.15 K, x2 = 0.1118 | 1147.96 ± 0.19 | 1343.7 ± 1.3
318.15 K, x2 = 0.2003 | 1211.95 ± 0.23 | 1297.3 ± 1.2
318.15 K, x2 = 0.3056 | 1266.24 ± 0.24 | 1260.6 ± 1.2
318.15 K, x2 = 0.408 | 1304.59 ± 0.25 | 1237.3 ± 1.2
318.15 K, x2 = 0.4987 | 1330.88 ± 0.25 | 1223.1 ± 1.2
318.15 K, x2 = 0.602 | 1355.18 ± 0.23 | 1210.1 ± 1.2
318.15 K, x2 = 0.7047 | 1374.95 ± 0.22 | 1201 ± 1.2
318.15 K, x2 = 0.7945 | 1389.43 ± 0.22 | 1194.3 ± 1.2
318.15 K, x2 = 0.8971 | 1404.09 ± 0.22 | 1188.6 ± 1.2
